Results reported in US20180153872A1, “HETEROARYL CARBONITRILES FOR THE TREATMENT OF DISEASE” (OPKO Health, Inc., priority 2015, published 2018).
Values after ≈ are worked out from the molar mass of the structure shown.

Experiments:
[1] = Brain penetration, guinea pigs; assay type: in vivo, guinea pig
Method: (§1) Urinary excretion was also substantial (approximately 20%).
(§2) The extent of brain penetration by SCH 900978 was evaluated after oral administration of SCH 900978 amorphous hydrochloride to female gerbils (0.1 mg/kg), male Sprague Dawley rats (5 mg/kg), and male guinea pigs (0.3 mg/kg).

capsaicin-induced cough = test: Capsaicin-induced cough in conscious guinea pigs; assay type: in vivo; settings: guinea pig
Method: Inhalation of the irritant capsaicin induces coughing in both animals and humans, in part by releasing substance P from unmyelinated sensory C fibers in the lung. When administered orally to conscious guinea pigs six hours prior to inhalation of aerosolized capsaicin, SCH900978 attenuated capsaicin-induced cough in a dose-dependent manner (ED90=0.04 mg/kg) (FIG. 2).

in vivo = test: in vivo
Method: (§3) A series of in vitro and in vivo studies examined the effects of SCH900978 on cardiovascular, respiratory and CNS functions. No adverse effects were observed. The NOAEL was ≥25 mg/kg in male rats, ≥12.5 mg/kg in female rats and ≥10 mg/kg in male cynomolgus monkeys; each dose was the highest dose tested.

[2] = Metabolic pathways in the mammals tested; assay type: in vivo
Source text: as §1

hERG gene current = hERG gene current (Homo sapiens, UniProt Q12809); test: hERG current inhibition; assay type: cell-based
Sequence of hERG gene current (Q12809 whole entry): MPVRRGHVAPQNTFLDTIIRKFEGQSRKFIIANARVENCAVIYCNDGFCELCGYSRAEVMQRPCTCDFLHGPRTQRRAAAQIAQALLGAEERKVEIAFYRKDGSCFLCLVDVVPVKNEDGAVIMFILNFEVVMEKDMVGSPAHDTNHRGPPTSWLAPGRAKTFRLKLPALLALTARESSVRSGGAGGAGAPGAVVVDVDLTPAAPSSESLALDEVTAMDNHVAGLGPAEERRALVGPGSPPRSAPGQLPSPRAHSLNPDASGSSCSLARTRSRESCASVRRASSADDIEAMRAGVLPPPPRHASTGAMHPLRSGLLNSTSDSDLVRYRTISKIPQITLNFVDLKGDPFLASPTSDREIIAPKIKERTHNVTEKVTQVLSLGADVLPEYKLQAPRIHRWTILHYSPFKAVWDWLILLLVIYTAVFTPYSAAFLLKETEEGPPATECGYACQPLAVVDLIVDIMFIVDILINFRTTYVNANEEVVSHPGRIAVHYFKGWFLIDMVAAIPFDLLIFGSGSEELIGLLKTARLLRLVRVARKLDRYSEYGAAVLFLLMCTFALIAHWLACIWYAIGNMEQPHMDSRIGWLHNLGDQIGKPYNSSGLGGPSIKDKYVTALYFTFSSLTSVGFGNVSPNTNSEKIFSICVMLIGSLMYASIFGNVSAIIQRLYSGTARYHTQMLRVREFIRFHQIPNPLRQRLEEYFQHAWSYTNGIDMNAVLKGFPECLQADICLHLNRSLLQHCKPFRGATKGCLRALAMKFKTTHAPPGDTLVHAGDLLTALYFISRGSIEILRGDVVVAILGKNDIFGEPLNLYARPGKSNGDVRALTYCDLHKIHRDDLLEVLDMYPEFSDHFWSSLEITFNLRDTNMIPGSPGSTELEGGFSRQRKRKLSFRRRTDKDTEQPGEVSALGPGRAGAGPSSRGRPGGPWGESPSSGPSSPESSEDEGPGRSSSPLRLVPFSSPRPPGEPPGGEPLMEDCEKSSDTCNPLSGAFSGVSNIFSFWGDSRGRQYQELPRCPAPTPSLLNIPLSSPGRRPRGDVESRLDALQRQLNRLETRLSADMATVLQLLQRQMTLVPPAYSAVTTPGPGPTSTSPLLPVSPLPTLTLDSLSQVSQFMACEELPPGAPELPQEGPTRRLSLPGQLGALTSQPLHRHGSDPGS
Method: as §3

NK1 receptor [3] = biological target: T1, NK1 receptor (Meriones unguiculatus, UniProt Q5DUB1); test: Gerbil foot thumping (in vivo pharmacodynamic model of NK1 receptor activity); set-up: from tissue; host or cells: living gerbil (central NK1 receptors)
T1 sequence (Q5DUB1 whole entry): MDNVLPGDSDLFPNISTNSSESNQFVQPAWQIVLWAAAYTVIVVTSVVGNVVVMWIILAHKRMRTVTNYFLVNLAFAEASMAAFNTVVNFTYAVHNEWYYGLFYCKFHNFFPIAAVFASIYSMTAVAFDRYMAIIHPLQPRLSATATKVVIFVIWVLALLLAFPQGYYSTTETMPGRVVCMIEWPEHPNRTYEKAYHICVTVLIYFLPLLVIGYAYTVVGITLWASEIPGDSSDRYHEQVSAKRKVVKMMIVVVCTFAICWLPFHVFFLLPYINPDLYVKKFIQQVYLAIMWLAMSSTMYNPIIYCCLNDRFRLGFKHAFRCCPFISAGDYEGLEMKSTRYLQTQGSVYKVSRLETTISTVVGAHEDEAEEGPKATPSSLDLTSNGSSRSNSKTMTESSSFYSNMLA
Source text: Intracerebroventricular administration of NK1 receptor agonists to gerbils induces vigorous thumping in the hind feet. This response can be blocked by NK1 receptor antagonists.

NK3 receptor = biological target: T2, NK3 receptor (Homo sapiens, UniProt P29371); test: NK3 receptor affinity; assay type: binding
T2 sequence (P29371 1-465): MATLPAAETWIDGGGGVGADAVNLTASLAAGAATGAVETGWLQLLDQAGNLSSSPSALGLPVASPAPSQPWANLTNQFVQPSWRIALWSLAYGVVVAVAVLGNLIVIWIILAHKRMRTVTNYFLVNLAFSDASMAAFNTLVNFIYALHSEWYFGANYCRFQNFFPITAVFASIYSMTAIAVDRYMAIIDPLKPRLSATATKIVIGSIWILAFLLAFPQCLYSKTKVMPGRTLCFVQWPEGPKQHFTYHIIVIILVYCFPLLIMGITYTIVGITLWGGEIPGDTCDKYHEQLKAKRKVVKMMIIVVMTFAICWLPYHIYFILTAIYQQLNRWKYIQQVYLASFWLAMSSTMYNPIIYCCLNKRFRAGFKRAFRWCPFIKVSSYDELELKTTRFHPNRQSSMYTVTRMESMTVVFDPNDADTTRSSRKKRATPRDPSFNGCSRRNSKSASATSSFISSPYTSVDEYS
Source text: A compound of formula I (also designated SCH 900978) is a potent, selective, competitive neurokinin-1 (NK-1) receptor antagonist that is effective as an oral administered drug for the treatment of cough and meets this unmet medical need. In addition, this drug is effective for the treatment of overactive bladder (OAB) and other selected indications including major depression and alcohol dependency. […] The present invention comprises a compound of formula I having an effective dose for 90% inhibition [ED90]=0.2 mg/kg as determined in an in vivo pharmacodynamic model of NK1 receptor activity (gerbil foot thumping).
(§4) SCH900978 was also tested for NK2 and NK3 receptor activity and in 106 other receptors, transporters, enzymes and ion channels and had greater than 1000 fold lower affinity for these than for the NK1 receptor.

[4] = Pharmacokinetics/toxicokinetics and excretion in rats; assay type: in vivo, rat; settings: for plasma concentration-time profile: single oral dose
Source text: as §1

NK1 receptor [5] = biological target: T1, NK1 receptor; test: NK1 receptor radioligand binding, gerbil; settings: no unit, Ki in nM
Method: as §4

[6] = Brain penetration, gerbils; assay type: in vivo, gerbil
Method: as §1, §2

[7] = Pharmacokinetics/toxicokinetics and excretion in monkeys; assay type: in vivo, monkey; settings: for plasma concentration-time profile: single oral dose
Source text: as §1

Solubility = assay type: physicochemical; settings: pH 7, aqueous buffer
Source text: The present invention comprises a compound having activity in mammalian cough models and is thus useful in the treatment of cough in mammals, including humans, after oral administration. The present invention comprises an oral formulation of a compound of formula I and pharmaceutically acceptable excipients selected from the group consisting of diluents, binders, disintegrants, wetting agents and lubricants. In a preferred embodiment the pharmaceutical composition comprises a compound of formula I (or IIa-IIc) or II and lactose monohydrate, microcrystalline cellulose, povidone, crospovidone, poloxamer 188 and magnesium stearate. The preferred oral form is a capsule. The amount of active ingredient in the capsule or oral dosage form may range from 1 mg to 250 mgs with a preferred range of 10-150 mg with a more preferred range of 20-100 mg per day in humans. The present invention also relates to an NK-1 antagonist (e.g., Formula II) having a half-life of approximately 10-13 days. The present invention further relates to a method of treating pruritus comprising administering a pharmaceutically effective amount of a compound of formula II having a half-life of 10-13 days to a patient in need of treatment thereof. […] The measured onset melting temperature as measured by differential scanning calorimetry (DSC) is 168.9. […]

NK1 receptor [8] = biological target: T3, NK1 receptor (Canis lupus familiaris, UniProt Q5DUB3); test: Substance P-elicited blood pressure and minute volume changes in dogs; assay type: in vivo; settings: dog, 0.3 mg/kg oral
T3 construct: from tissue; host or cells: living dog
T3 sequence (Q5DUB3 whole entry): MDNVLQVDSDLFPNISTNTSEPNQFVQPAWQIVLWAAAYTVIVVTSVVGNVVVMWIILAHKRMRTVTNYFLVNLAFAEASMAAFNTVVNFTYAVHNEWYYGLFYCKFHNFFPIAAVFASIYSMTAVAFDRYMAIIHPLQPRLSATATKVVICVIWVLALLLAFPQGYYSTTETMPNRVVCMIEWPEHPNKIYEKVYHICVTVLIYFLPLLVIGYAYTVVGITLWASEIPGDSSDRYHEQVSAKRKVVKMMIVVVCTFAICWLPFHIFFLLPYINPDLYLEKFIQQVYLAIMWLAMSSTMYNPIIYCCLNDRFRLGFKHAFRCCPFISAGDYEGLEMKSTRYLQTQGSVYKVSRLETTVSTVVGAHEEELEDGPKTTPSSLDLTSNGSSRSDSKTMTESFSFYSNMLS

SMILES: C[C@@H](OC[C@@]1(c2ccccc2)CC[C@](C#N)(n2cn[nH]c2=O)CN1)c1cc(C(F)(F)F)cc(C(F)(F)F)c1 [Compound 42, (3 S,6S)-6-({(1R)-1-[3,5-bis(trifluoromethyl)phenyl]ethoxy}methyl)-3-(5-oxo-1,5dihydro-4H-1,2,4-triazol-4-yl)-6-phenylpiperidine-3-carbonitrile]
- crossing of the blood brain barrier [1]: readily crossed the blood brain barrier
- maximal inhibition of capsaicin-induced cough (capsaicin-induced cough): comparable to that produced by the standard antitussive agents
- ED90, capsaicin-induced cough (capsaicin-induced cough; oral, six hours prior to aerosolized capsaicin): 0.04 mg/kg
- NOAEL (in vivo; female, rat): ≥ 12.5 mg/kg
- NOAEL (in vivo; male, cynomolgus monkey): ≥ 10 mg/kg
- NOAEL (in vivo; male, rat): ≥ 25 mg/kg
- major metabolic pathways [2]: oxidation and glucuronidation
- IC50 (hERG gene current): 860 nM
- duration of significant inhibition of NK1 agonist-induced foot thumping (NK1 receptor [3]; 0.3 mg/kg oral dose): up to 48 hours
- ED90, effective dose for 90% inhibition of foot thumping (NK1 receptor [3]; oral, six hours before testing, GR 73632-induced): 0.2 mg/kg
- Ki (NK3 receptor): > 1000 nM
- fold lower affinity than for the NK1 receptor (NK3 receptor; NK3 vs NK1): greater than 1000 fold
- systemic exposure after repeated administration ([4]; female and male rats, doses >=25 mg/kg, most likely CYP enzyme induction): decreased following repeated administration
- plasma concentrations over 24 hours after 29th dose versus first dose ([4]; female rats 0.5 to 12.5 mg/kg, male rats 1 to 5 mg/kg): greater
- systemic exposure (AUC) versus dose, single dose ([4]; male rats 0.6 to 500 mg/kg, female rats 0.5 to 250 mg/kg, no further increase at the highest doses): increased with increasing dose
- exposure, effect of sex ([4]; rats): higher in female rats than in male rats
- exposure versus dose ([4]; rats, once daily oral doses for one month): generally increased as the dose increased
- major elimination pathway ([4]; rats, oral administration): excretion into the feces
- plasma concentration-time profile ([4]; rats, listed as SCH 900978): extended absorption of SCH900978 with a long t1/2
- plasma concentration-time profile ([4]; rats, listed as SCH900978): extended absorption of the drug and a long apparent terminal elimination phase half-life
- Ki (NK1 receptor [5]): 0.2 nM
- crossing of the blood brain barrier [6]: readily crossed the blood brain barrier
- exposure, effect of sex ([7]; monkeys): independent of sex
- systemic exposure versus dose, single dose ([7]; monkeys): increased with increasing dose
- plasma concentrations over 24 hours after 29th dose versus first dose ([7]; monkeys 0.5 to 30 mg/kg): greater
- exposure versus dose ([7]; monkeys, once daily oral doses for one month): generally increased as the dose increased
- major elimination pathway ([7]; monkeys, oral administration): excretion into the feces
- plasma concentration-time profile ([7]; monkeys, listed as SCH 900978): extended absorption of SCH900978 with a long t1/2
- plasma concentration-time profile ([7]; monkeys, listed as SCH900978): extended absorption of the drug and a long apparent terminal elimination phase half-life
- solubility (Solubility): 1.8 µg/mL (≈ 3.34 µM)
- inhibition of substance P-elicited increase in minute volume (NK1 receptor [8]): maximally inhibited
- inhibition of substance P-elicited reduction in blood pressure (NK1 receptor [8]): maximally inhibited
